For assay [1], the system named is Spared Nerve Injury (SNI) model of neuropathic pain. In words: Spared Nerve Injury (SNI) model of neuropathic pain, Von Frey up-down mechanical threshold. The assay is classed as in vivo, mice. Conditions: SNI day 14, per os, 30 μg/mL solution in HPMC vehicle; peptides significant as soon as 1 hour (p value<0.01).
Assay [2] deals with injury-induced mechanical hypersensitivity. The conditions noted are these: cited from earlier work.
The subject of assay [3] is spinal lamina II interneurons. The conditions noted are these: spinal lamina II interneurons (WO2014180853); cited from earlier work.

As for “TAFA4 FL: human TAFA-4 full length mature protein (SEQ ID NO: 5) of 105 amino acid residues”, in assay [1], the “antalgic effect (reversal of mechanical threshold)” value is given as “did not show significant antalgic effect”. Further, in assay [2] (intrathecal injection (Delfini et al., 2013)), the “effect on prolonged nerve injury-induced mechanical hypersensitivity of TAFA-4 gene deleted mice” value is reported as “reversed”. Besides, the “effect on mechanical hypersensitivity” value in assay [2] (male and female mice, intrathecal and subcutaneous administration (WO2014180853)) is “reverses inflammatory, postoperative and nerve injury-induced mechanical hypersensitivity”. The “effect on nerve injury-induced neuronal sensitization” value in assay [3] is listed as “can reverse nerve injury-induced neuronal sensitization of the spinal lamina II interneurons”.

Source of the values: patent US20250213654A1, “PEPTIDES AND METHODS FOR USE IN TREATING PAIN” (TAFALGIE THERAPEUTICS, priority 2022, published 2025).
